Patent US9452195B2, “Use of CHEC peptides to treat neurological and cardiovascular diseases and disorders” (Drexel University, priority 2010, dated 2016)

Assays:
[1] = test system: phospholipase A2 (sPLA2); details: statement referring to earlier patents and applications; cited from earlier work
[2] = test system: neuron; details: cited from earlier work
[3] = test system: KA induced motor seizures in rats; assay: Kainic acid (KA) induced motor seizures in rats, graded by Racine scale; type: in vivo, rat; parameters: key to Max Seizure Stage: 1: hypoactivity, mouth and facial automatism; 2: head nodding and mastication; 3: forelimb clonus without rearing; 4: bilateral forelimb clonus and rearing; 5: rearing and loss of posture; Status epilepticus: stage 4-5 lasting for 30 min,
Description: Kainic acid (KA) was administered intraperitoneal (IP) to rats at doses ranging from […]. Rats age postnatal day (P) 12-15 were administered 2 mg/kg KA. Rats age P35-40 were administered 6 mg/kg KA. The KA was delivered in a constant volume of phosphate buffer (5 ml/kg) and reliably produced motor seizure activity.
Following IP administration of KA, rats were video-recorded for 3 hours, and then daily for 3 hours. The video recordings are later scored blind. The severity and latency of seizures is graded for P35 rats by a classical scale shown in Table 1 (Racine, 1972, Electroencephalog. Clin. Neurophysiol. 32:281-294).
Rats (250-300 g) are done in pairs and administered either a control peptide/vehicle or CHEC peptide in vehicle at various intervals pre- or post KA treatment. Control or CHEC peptide are administered either 4, 2 or 0.5 hours pre-KA or 0.25, and 0.5 hrs post-KA. The effects of CHEC-7 and CHEC-9 are compared because the peptides have different pharmakinetic profiles in rat.
Forty minutes prior to KA administration, the rats were administered either control peptide or CHEC-9 at the indicated dosages and routes of administration. The resulting motor seizures were graded as described elsewhere herein. […] In one set of experiments, rats were pre-fed lecithin or phosphatidylcholine prior to administering the KA.

[4] = test system: hippocampal neuronal activity in kainic acid-treated rats; assay: Multiunit activity in CA1 cell field of hippocampus of kainic acid treated rats; type: in vivo, rat; details: CHEC-9 1 mg/kg orally 40 min before KA 10 mg/kg IP
From the text: FIG. 1, is a graph depicting multiunit activity recorded from the CA1 cell field of the hippocampus of awake, freely moving kainic acid-treated rats that have been treated either with CHEC-9 or vehicle. Multiunit activity is presented as impulses recorded per second and provided as a percentage of baseline activity measured prior to seizure induction.
Rats were implanted with a multichannel electrode bundle placed in the CA1 cell field of the hippocampus one week prior to the experiment. Baseline hippocampal neuronal activity (impulses per second) was collected during a 30 minute control period. After 30 minutes of baseline neuronal activity was collected, either CHEC-9 (1 mg/kg) or vehicle was administered orally 40 min prior to IP administration of kainic acid (10 mg/kg). The duration of the KA administration varied. Neuronal activity in response to KA administration is presented as % of baseline activity (FIG. 1).

Row | Substance | inhibition of phospholipase A2 / sPLA2 [1] | neuron protective activity [2] | Max Seizure Stage ([3]; individual rat, C9 0.5 mg/kg sc 40 min before KA 6 mg/kg ip) | Max Seizure Stage ([3]; individual rat, C9 1.0 mg/kg po 40 min before KA 5 mg/kg ip) | Max Seizure Stage ([3]; individual rats, C9 0.5 mg/kg sc 40 min before KA 5 mg/kg ip) | Max Seizure Stage ([3]; individual rats, C9 1.0 mg/kg po 40 min before KA 10 mg/kg ip, female rats) | Max Seizure Stage ([3]; individual rats, C9 1.0 mg/kg po 40 min before KA 10 mg/kg ip, male rats) | likelihood of severe motor seizures versus vehicle control ([3]; rats 250-300 g, peptide given 40 min before KA) | seizure symptoms by the end of the experiment ([4]; vehicle rat reached status epilepticus) | effect of KA on neuronal activity (multiunit activity, % of baseline) ([4]; versus vehicle)
1 | CAHAQAESC [CHEC-9 peptide variant] | inhibit phospholipase A2 | also has neuron protective activity | – | – | – | – | – | – | – | –
2 | CHEASAAQC [CHEC-9] | inhibit phospholipase A2 | – | 2 | 1 | 1 | 3 | 1 | vehicle control were more likely to exhibit severe motor seizures than rats that were administered CHEC-9 | no obvious symptoms | much smaller effect of KA on neuronal activity
3 | CHEASQC [CHEC-7] | even more potent as a sPLA2 inhibitor than CHEC-9 | – | – | – | – | – | – | – | – | –
